# Assays:
# Assay in all cases: anti-proliferation assay
# Format in all cases: cell-based
# SaoS2(WT) = details: Homo sapiens, SAOS-2, 48 h, read-out: anti-proliferation GI50
# SW480(OWT) = details: Homo sapiens, SW480, 48 h, read-out: anti-proliferation GI50
# T47D(OWT) = details: Homo sapiens, 48 h, read-out: anti-proliferation GI50
# H1975(WT) = details: Homo sapiens, NCI-H1975, 48 h, read-out: anti-proliferation GI50
# A549(WT) = details: Homo sapiens, A549, 48 h, read-out: anti-proliferation GI50
# HCT-116(OWT) = details: Homo sapiens, HCT-116, 48 h, read-out: anti-proliferation GI50
# EJ(WT) = details: 48 h, read-out: anti-proliferation GI50
# SNU-449(OMT) = details: Homo sapiens, SNU-449, 48 h, read-out: anti-proliferation GI50
# SkBr3(WT) = details: Homo sapiens, SK-BR-3, 48 h, read-out: anti-proliferation GI50
# SNU-1040(OMT) = details: Homo sapiens, 48 h, read-out: anti-proliferation GI50
smiles,measurement,setting,value
CCN1CCN(Cc2ccc(C(=O)Nc3ccc(C)c(Oc4ccc5c(c4)CC(=O)N5)c3)cc2C(F)(F)F)CC1 [DDR1-IN-1],GI50,SaoS2(WT),8.14 µM
same,GI50,SW480(OWT),> 10 µM
same,GI50,T47D(OWT),> 10 µM
same,GI50,H1975(WT),> 10 µM
same,GI50,A549(WT),> 10 µM
same,GI50,HCT-116(OWT),8.7 µM
same,GI50,EJ(WT),> 10 µM
same,GI50,SNU-449(OMT),> 10 µM
same,GI50,SkBr3(WT),> 10 µM
same,GI50,SNU-1040(OMT),> 10 µM
